Consider one compound from article PMC7403315, “Cyclic peptide FXII inhibitor provides safe anticoagulation in a thrombosis model and in artificial lungs” (Nature Communications, 2020).

In general, Vd refers to the apparent volume that relates the amount in the body to the concentration in plasma or blood. Low readings indicate little distribution into tissue, high ones wide distribution into tissue. The clearance is the volume of plasma or blood freed of the substance per unit of time.

The structures appear in SMILES notation. Several values for one entry are separate records, joined by “and”; a condition that tells them apart may be missing. Equal values may be shown once. Read-outs that look alike come from different tables or passages of the source. Starred links: 1 amine or outer side, 2 acyl side, 3 side chain; linkers in the order of their positions; H or OH if unused. Positions of bridges follow the written chain, without caps; N, C: chain ends. Non-standard residues stand in square brackets, D forms with d. Residues, ends and D or L forms follow the SMILES beside them. TATA = O=C(CC[*:1])N1CN(C(=O)CC[*:2])CN(C(=O)CC[*:3])C1; Phe(4-F) = N[C@@H](Cc1ccc(F)cc1)C(=O)O; β3hR = N=C(N)NCCC[C@H](N)CC(=O)O

A short description of series [1]: Pharmacokinetic study in mice (plasma concentration by LC-MS). It counts as in vivo, mouse. Conditions: 5 mg kg^−1 subcutaneous. The protocol: Mice for all experiments were kept at ambient temperature (around 20 °C), around 60% humidity, half-day light/half-day dark cycles, and in groups of 2–5 mice per cage. C57BL/6J wild-type mice (male, 10–20 weeks old, 25–30 g, Charles River) were injected subcutaneously over the shoulders with 5 mg kg^−1 of FXII900 (0.5 mg ml^−1 in PBS, pH 7.4). The mice were anaesthetized 3 min before the scheduled blood collection time point (40 mg kg^−1 pentobarbital). […] The mice were euthanized by cervical dislocation. The blood was immediately processed to plasma by centrifugation for 10 min at 2000 × g and 4 °C, and stored at −80 °C. The concentration of FXII900 in the plasma samples was determined by LC-MS as described below. Differenct mice were used for each time point.
(§1) The concentration of FXII900 in the plasma samples was quantified based on peak intensities of total ion current (TIC) chromatograms acquired by LC-MS (LCMS-2020, Shimadzu). To 15 μl of plasma sample, 1 μM of internal standard peptide and 5 μl of 6 M guanidinium hydrochloride solution were added and mixed. Plasma proteins were precipitated by the addition of 400 µl of ice cold ethanol (99.9% [v/v] EtOH, 0.1% [v/v] TFA) and incubated on ice for one hour. Precipitate was removed by centrifugation (9000 × g, 20 min, 4 °C) and the supernatant dried by centrifugal evaporation under vacuum. Dried samples were dissolved by sequentially adding 2 μl of DMSO and 18 μl of H2O containing 0.1% (v/v) CHOOH and analyzed by LC-MS. The samples were analyzed using an analytical C18 column (Phenomenex C18 Kinetex column, 50 × 2.1 mm, 2.6 µm, 100 Å) and a linear gradient of 5–30% solvent B (MeCN, 0.05% [v/v] CHOOH) in solvent A (H2O, 0.05% [v/v] CHOOH) in 4.5 min at a flow of 1 ml per min. The mass was measured on a single quadrupole mass spectrometer in positive ion mode using electrospray ionization. Peptides were quantified based on the absolute intensities of the detected mass peaks (M^3+ and M^4+).

Series [2] is described as follows: Pharmacokinetic study in rabbits (plasma concentration by LC-MS). It counts as in vivo, rabbit. The protocol: The pharmacokinetic properties of FXII900 applied intravenously were determined as follows. Female New Zealand White rabbits (10–20 weeks old) were injected with 3.7 mg kg^−1 FXII900 dissolved in 1 ml PBS, pH 7.4 via the ear vein. […] The concentration of FXII900 in the plasma samples was determined by LC-MS as described below. The pharmacokinetic properties of FXII900 applied subcutaneously were determined as follows. Female New Zealand White rabbits (2.5–2.9 kg) were injected subcutaneously over the shoulders with 3.7 mg kg^−1 of FXII900 dissolved in 1 ml PBS pH 7.4. […] The plasma was stored at −80 °C. The concentration of FXII900 in the plasma samples was determined by LC-MS as described below.
as §1

Where [3] appears, read: female, New Zealand White, rabbit, plasma, intravenous, 3.7 mg kg-1.

As for `CC(C)C[C@@H]1NC(=O)[C@H](CCC(N)=O)NC(=O)[C@H](Cc2c[nH]cn2)NC(=O)[C@@H]2CSCCC(=O)N3CN(CN(C3)C(=O)CCSC[C@H](NC(=O)[C@@H](CO)NC(=O)[C@H](N)CCCNC(=N)N)C(=O)N[C@@H](Cc3ccc(F)cc3)C(=O)N[C@@H](CCCNC(=N)N)C(=O)N[C@@H](CC(C)C)C(=O)N3CCC[C@H]3C(=O)N2)C(=O)CCSC[C@@H](C(N)=O)NC(=O)C[C@H](CCCNC(=N)N)NC1=O` [FXII900] (H-[dR][dS]C[Phe(4-F)]RLPCHQL[β3hR]C-NH2; linker 3-8-13 via TATA), the Plasma conc. was 1470 nM in series [1] (15 min); 2596 nM in series [2] (intravenous administration, 5 min, individual rabbits and analyses); 2079 nM in series [2] (intravenous administration, 10 min, individual rabbits and analyses); 1683 nM and 1119 nM in series [2] (intravenous administration, 20 min, individual rabbits and analyses); 313.9 nM in series [2] (intravenous administration, 40 min, individual rabbits and analyses); 237.6 nM in series [2] (subcutaneous administration, 10 min, individual rabbits and analyses). For the same compound, the “Plasma conc.” value in series [2] (subcutaneous administration, 160 min, individual rabbits and analyses) was -5.09 nM. In series [1] (male, C57BL/6J, mouse, plasma, sc, 5 mg/kg, 3 min, read-out: Plasma conc.), the level at time molar at 0.05 h was approximately 1000 nM. Besides, the level at time molar at […] in series [1] (male, C57BL/6J, mouse, plasma, sc, 5 mg/kg, 15 min, read-out: Plasma conc.) amounted to 1990 nM. Moreover, the Vd in series [2] (setting [3]) was found to be 0.28 ± 0.05 L/kg. The clearance in series [2] (setting [3]) came out at 16.1 ± 1 mL/min/kg. For the same compound, the half-life in series [2] (female, New Zealand White, rabbit, plasma, intravenous, 3.7 mg kg^−1, read-out: elimination half-life (t1/2 β)) stood at 12 ± 2 min. Also, in series [2] (female, New Zealand White, rabbit, plasma, iv, 3.7 mg/kg, intravenous administration, 2 min, individual rabbits and analyses, read-out: Plasma conc.), the level at time molar at 2 min is 5510 nM. For the same compound, in series [2] (female, New Zealand White, rabbit, plasma, iv, 3.7 mg/kg, intravenous administration, 5 min, individual rabbits and analyses, read-out: Plasma conc.), the level at time molar at 5 min came to 2610 nM. The level at time molar at 10 min in series [2] (female, New Zealand White, rabbit, plasma, iv, 3.7 mg/kg, intravenous administration, 10 min, individual rabbits and analyses, read-out: Plasma conc.) is 2250 nM. Further, the level at time molar at 20 min in series [2] (female, New Zealand White, rabbit, plasma, iv, 3.7 mg/kg, intravenous administration, 20 min, individual rabbits and analyses, read-out: Plasma conc.) came to 1260 nM. Besides, the level at time molar at 40 min in series [2] (female, New Zealand White, rabbit, plasma, iv, 3.7 mg/kg, intravenous administration, 40 min, individual rabbits and analyses, read-out: Plasma conc.) is 503 nM; in series [2] (female, New Zealand White, rabbit, plasma, sc, 3.7 mg/kg, subcutaneous administration, 40 min, individual rabbits and analyses, read-out: Plasma conc.) it was 254 nM.
